{
  "source": "patent US20230121474A1",
  "about": "“STERILIZATION COMPOSITIONS AND METHODS FOR USING THEREOF” (Save Foods Ltd., priority 2020, published 2023)",
  "key": {"Listeria": {"test_system": "Listeria", "test": "In-vitro antimicrobial activity, edible matter contaminated with bacteria dipped into test solution (CFU reduction)", "type": "cell-based", "conditions": "contact time 60 minutes", "protocol": "The antimicrobial activity of the composition was tested in-vitro. […] The contact time was 60 minutes. The antimicrobial activity was assessed by calculating bacterial viability (e.g. reduction of the CFU)."}, "[1]": {"test_system": "pre-infected lemons (inoculum of homogenized infected lemons)", "test": "Decay of pre-infected, pricked lemons after sanitizing treatment", "type": "in vivo", "source_text": "Inoculum preparation: Infected lemons were identified visually and collected under three different lemon trees on Moshav Beit Yitzhak. Ten of the more infected lemons were put into a food processor, diluted with rainwater and homogenized to uniform, grayish brown, slightly viscous liquid consistency.\nThey were sent to de-greening from which they were removed on 2nd day. All lemons were pricked in 6 different location on each lemon using a metal nail attached to a rubber stopper which ensured a uniform pricking depth of 1.5 mm on all the lemons. On the same day the liquidized inoculum was prepared as described above and all the lemons were dipped into the “infected” water solution for 30 seconds and allowed to dry at ambient room conditions—temperatures between […].\nOn the next day the lemons were treated as per description below to screen the various treatment's efficacy in controlling and preventing decay and spoilage of the pre-infected lemons. All treated lemons were divided and placed in separate cartons and allowed to dry. Disease progress of the lemons was monitored for 7 days with no visible disease symptoms. On day 8 after treatment all cartons were covered with plastic sheeting in order to increase ambient humidity to speed up disease development."}, "common fungal pathogen": {"test_system": "common fungal pathogen", "test": "Decay of clementine infested with fungal pathogen after treatment", "type": "in vivo", "conditions": "fruits infested at around 10^5 CFU, cold storage 9 to 21 days then room temperature", "protocol": "Additionally, exemplary sanitizing composition (Composition B) was applied on clementine, and the fruit decay was evaluated as compared to only PAA treatment or untreated fruits. The fruits were infested with a common fungal pathogen at a concentration of around 10^5 CFU and inoculated for 16-24 hours before treatment. Following the treatments, the fruits were stored in cold storage for between 9 to 21 days and then stored in room temperature for shelf-life evaluation."}, "[2]": {"conditions": "acid blend 1:1:1 molar ratio with oxidizing agent, potent = at least 10^5-fold reduction of CFUs"}, "[3]": {"conditions": "Treatment 3: PAA 50 ppm/PAA 50 ppm, contact time 60 sec"}, "[4]": {"conditions": "Treatment 4: PAA 50 ppm/PAA 50 ppm, contact time 45 sec"}, "[5]": {"conditions": "Treatment 5: PAA 30 ppm, contact time 45 sec"}},
  "data": [
    {"molecule": "CCC(=O)O", "note": "[propionic acid]", "values": [
      {"measurement": "concentration of propionic acid within the solution sufficient for antibacterial activity", "setting": "Listeria; [2]", "value": 100, "unit": "ppm"}
    ]},
    {"molecule": "CC(=O)OO", "note": "[PAA, per-acetic acid]", "values": [
      {"measurement": "% Infected Lemons 15 DAT", "setting": "[1]; [3]", "value": 16.7, "unit": "%"},
      {"measurement": "% Infected lemons 10 DAT", "setting": "[1]; [3]", "value": 0, "unit": "%"},
      {"measurement": "Infected Lemons 10 DAT", "setting": "[1]; [3]", "value": 0},
      {"measurement": "Infected Lemons 15 DAT", "setting": "[1]; [3]", "value": 2},
      {"measurement": "% Infected Lemons 15 DAT", "setting": "[1]; [4]", "value": 25, "unit": "%"},
      {"measurement": "% Infected lemons 10 DAT", "setting": "[1]; [4]", "value": 20, "unit": "%"},
      {"measurement": "Infected Lemons 10 DAT", "setting": "[1]; [4]", "value": 3},
      {"measurement": "Infected Lemons 15 DAT", "setting": "[1]; [4]", "value": 3},
      {"measurement": "% Infected Lemons 15 DAT", "setting": "[1]; [5]", "value": 40, "unit": "%"},
      {"measurement": "% Infected lemons 10 DAT", "setting": "[1]; [5]", "value": 40, "unit": "%"},
      {"measurement": "Infected Lemons 10 DAT", "setting": "[1]; [5]", "value": 4},
      {"measurement": "Infected Lemons 15 DAT", "setting": "[1]; [5]", "value": 4},
      {"measurement": "decay of clementine", "setting": "common fungal pathogen", "value": "about 20%"}
    ]},
    {"molecule": "OO", "note": "[hydrogen peroxide]", "values": [
      {"measurement": "minimum concentration of hydrogen peroxide within the solution", "setting": "Listeria; [2]", "value": 200, "unit": "ppm"},
      {"measurement": "antimicrobial activity of the oxidizing agent alone", "setting": "Listeria; without acid blend", "value": "Neither hydrogen peroxide, nor silver/hydrogen peroxide combination showed a significant antimicrobial activity"}
    ]}
  ]
}
